Target: T1, Cytochrome P450 (CYP3A4) (Homo sapiens, UniProt P08684)
T1 construct: human liver microsome (0.1 mg protein/mL); from tissue; host or cells: human liver microsomes
Test: Measurement of cytochrome P450 (CYP3A4) enzyme inhibition activity in human liver microsome (inhibition tests I and II, midazolam substrate)
Type: in vitro ADME
Details: for I (%) Remaining Rate I: inhibition test I: 5 μM test compound, 2 μM midazolam, human liver microsome, 37° C. 20 minutes, no preincubation; for II (%) Remaining Rate II: inhibition test II: 5 μM test compound preincubated 30 minutes with human liver microsome and NADPH, then 2 μM midazolam 20 minutes, relative to test I
Protocol: Test Method 3: Measurement of Cytochrome P450 (CYP3A4) Enzyme Inhibition Activity i) Inhibition Test I (Calculation of Remaining Rate I)
Using a 96-well plate, 2 μM of a substrate (midazolam), 5 μM of a test compound, and human liver microsome (0.1 mg protein/mL) were incubated at 37° C. for 20 minutes in a total amount of 150 μL of a 100 mM phosphate buffer (pH 7.4) containing 0.1 mM EDTA and 1 mM NADPH. Then, the reaction was stopped by adding 130 μl of an aqueous solution containing 80% acetonitrile. Thereafter, the samples were analyzed by LC/MS/MS, and the remaining rates I were calculated using the following equation 1.
Remaining Rate I(%)=Ai,I/Ao,I×100 (Equation 1)
Ai, I=Amount of produced metabolite after reaction in the presence of the test compound in the inhibition test I Ao, I=Amount of produced metabolite after reaction in the absence of the test compound in the inhibition test I ii) Inhibition Test II (Calculation of Remaining Rate II)
Using a 96-well plate, 5 μM of a test compound and human liver microsome (0.1 mg protein/mL) were incubated at 37° C. for 30 minutes in a total amount of 145 μL of a 100 mM phosphate buffer (pH=7.4) containing 0.1 mM EDTA and 1 mM NADPH. Then, 2 μM of midazolam as the substrate was added thereto at a total amount of 150 μL of and incubated at 37° C. for 20 minutes. After the incubation, the reaction was stopped by adding 130 μL of an aqueous solution containing 80% acetonitrile. Thereafter, the samples were analyzed by LC/MS/MS, and the remaining rate II was calculated using the following equation 2.
Remaining Rate II(%)=Ai,II/Ao,II/(Ai,I/Ao,I)×100 (Equation 2)
Ai, II=Amount of produced metabolite after reaction in the presence of the test compound in the inhibition test II […]=Amount of produced metabolite after reaction in the absence of the test compound in the inhibition test II […]
Ex represents No. of the Example Compounds as described below.

T1 sequence (P08684 whole entry): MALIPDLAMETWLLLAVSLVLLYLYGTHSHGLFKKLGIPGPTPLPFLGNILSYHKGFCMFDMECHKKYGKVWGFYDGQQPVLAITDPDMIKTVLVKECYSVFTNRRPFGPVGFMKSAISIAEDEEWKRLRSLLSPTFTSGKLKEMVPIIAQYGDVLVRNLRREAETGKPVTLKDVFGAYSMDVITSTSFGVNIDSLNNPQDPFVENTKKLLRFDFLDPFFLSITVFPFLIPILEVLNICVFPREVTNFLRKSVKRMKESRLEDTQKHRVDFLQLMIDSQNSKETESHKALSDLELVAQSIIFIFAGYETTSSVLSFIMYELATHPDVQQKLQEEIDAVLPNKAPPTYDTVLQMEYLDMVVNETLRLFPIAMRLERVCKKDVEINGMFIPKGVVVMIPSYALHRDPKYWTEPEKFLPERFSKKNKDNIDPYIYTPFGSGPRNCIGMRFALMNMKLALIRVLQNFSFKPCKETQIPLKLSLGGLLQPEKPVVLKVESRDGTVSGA

Row | I (%) Remaining Rate I | II (%) Remaining Rate II | SMILES
1 | 85% | 84% | CNC1CCC(N[C@@H]2[C@@H]3CC4C[C@H]2C[C@@](CNc2nc(NCc5ccccc5Cl)ncc2C#N)(C4)C3)CC1 (relative stereo) [Example 316]
2 | 88% | 82% | CN1CCC(N[C@@H]2[C@@H]3CC4C[C@H]2C[C@@](CNc2nc(NCc5ccccc5Cl)ncc2C#N)(C4)C3)CC1 (relative stereo) [Example 248]
3 | 91% | 87% | CSc1ccccc1CNc1ncc(C#N)c(NC[C@]23CC4C[C@H](C2)[C@@H](NC[C@H]2CC[C@H](O)CC2)[C@@H](C4)C3)n1 [Example 263]
4 | 75% | 85% | N#Cc1cnc(NCc2cnccc2Cl)nc1NC[C@]12CC3C[C@H](C1)[C@@H](NC1CCC(O)CC1)[C@@H](C3)C2 (stereo partly shown) [Example 251]
5 | 80% | 95% | CSc1ccccc1CNc1ncc(C#N)c(NC[C@]23CC4C[C@H](C2)C(NC[C@H]2CC[C@H](CO)CC2)[C@@H](C4)C3)n1 (stereo partly shown) [Example 229]
6 | 79% | 92% | N#Cc1cnc(NCc2ccccc2Cl)nc1NC[C@]12CC3C[C@H](C1)[C@@H](NC1CCN(CCO)CC1)[C@@H](C3)C2 [Example 209]
7 | 81% | 85% | N#Cc1cnc(NCc2ccccc2Cl)nc1NC[C@]12CC3C[C@H](C1)[C@@H](NC1CCN(CCF)CC1)[C@@H](C3)C2 (relative stereo) [Example 212]
8 | 77% | 94% | COCCN1CCC(N[C@@H]2[C@@H]3CC4C[C@H]2C[C@@](CNc2nc(NCc5ccccc5Cl)ncc2C#N)(C4)C3)CC1 (relative stereo) [Example 210]
9 | 85% | 88% | CSc1ccccc1CNc1ncc(C#N)c(NC[C@]23CC4C[C@H](C2)[C@@H](NC2CCNCC2)[C@@H](C4)C3)n1 (relative stereo) [Example 290]
10 | 77% | 80% | COc1ccccc1CNc1ncc(C#N)c(NC[C@]23CC4C[C@H](C2)[C@@H](NC2CCC(C)(O)CC2)[C@@H](C4)C3)n1 (single isomer, unassigned) [Example 119]
11 | 78% | 91% | COc1ncccc1CNc1ncc(C#N)c(NC[C@]23CC4C[C@H](C2)[C@@H](NC[C@H]2CC[C@H](CO)CC2)[C@@H](C4)C3)n1 (relative stereo) [Example 343]
12 | 85% | 84% | CC1(N)CCC(N[C@@H]2[C@@H]3CC4C[C@H]2C[C@@](CNc2nc(NCc5ccccc5Cl)ncc2C#N)(C4)C3)CC1 (relative stereo) [Example 314]
13 | 87% | 81% | COc1ccccc1CNc1ncc(C#N)c(NC[C@]23CC4C[C@H](C2)[C@@H](N[C@H]2CC[C@H](O)CC2)[C@@H](C4)C3)n1 (relative stereo) [Example 62]
14 | 88% | 90% | CSc1ncccc1CNc1ncc(C#N)c(NC[C@]23CC4C[C@H](C2)[C@@H](NC2CCC(O)CC2)[C@@H](C4)C3)n1 (relative stereo) [Example 258]
15 | 92% | 95% | N#Cc1cnc(NCc2ccccc2OC(F)(F)F)nc1NC[C@]12CC3C[C@H](C1)[C@@H](NCC1CCNCC1)[C@@H](C3)C2 (relative stereo) [Example 329]
16 | 88% | 94% | COc1ncccc1CNc1ncc(C#N)c(NC[C@]23CC4C[C@H](C2)C(N[C@H]2CC[C@H](CO)CC2)[C@@H](C4)C3)n1 (relative stereo) [Example 232]

Row | I (%) Remaining Rate I | II (%) Remaining Rate II | SMILES
17 | 85% | 86% | CNC1CCC(N[C@@H]2[C@@H]3CC4C[C@H]2C[C@@](CNc2nc(NCc5ccccc5Cl)ncc2C#N)(C4)C3)CC1 (stereo partly shown) [Example 315]
18 | 75% | 81% | N#Cc1cnc(NCc2ccccc2Cl)nc1NC[C@]12CC3C[C@H](C1)[C@@H](NC1CCC(N4CCC[C@@H]4CO)CC1)[C@@H](C3)C2 (relative stereo) [Example 238]
19 | 89% | 83% | CC(=O)N1CCC(N[C@H]2CC[C@@H](N[C@@H]3[C@@H]4CC5C[C@H]3C[C@@](CNc3nc(NCc6ccccc6Cl)ncc3C#N)(C5)C4)CC2)CC1 (relative stereo) [Example 281, rel-4-({[(1R,3S,4R,5R)-4-({cis-4-[(1-acetylpiperidin-4-yl)amino]cyclohexyl}amino)adamantan-1-yl]methyl}amino)-2-[(2-chlorobenzyl)amino]pyrimidine-5-carbonitrile]
20 | 82% | 90% | CSc1ccccc1CNc1ncc(C#N)c(NC[C@]23CC4C[C@H](C2)[C@@H](NC2CCC(O)CC2)[C@@H](C4)C3)n1 (relative stereo) [Example 68, rel-4-[({(1S,3R,4S,5S)-4-[(4-hydroxycyclohexyl)amino]adamantan-1-yl}methyl)amino]-2-{[2-(methylsulfanyl)benzyl]amino}pyrimidine-5-carbonitrile]
21 | 83% | 99% | N#Cc1cnc(NCc2ccccc2Cl)nc1NC[C@]12CC3C[C@H](C1)[C@@H](NC1CCN(C4CCOCC4)CC1)[C@@H](C3)C2 (relative stereo) [Example 266]
22 | 82% | 83% | CCN1CCC(N[C@@H]2[C@@H]3CC4C[C@H]2C[C@@](CNc2nc(NCc5ccccc5Cl)ncc2C#N)(C4)C3)CC1 [Example 249]
23 | 78% | 94% | CSc1ccccc1CNc1ncc(C#N)c(NC[C@]23CC4C[C@H](C2)[C@@H](NC[C@H]2CC[C@H](CO)CC2)[C@@H](C4)C3)n1 (relative stereo) [Example 339]
24 | 81% | 91% | N#Cc1cnc(NCc2ccccc2Cl)nc1NC[C@]12CC3C[C@H](C1)[C@@H](N[C@H]1CC[C@@H](NC4CCOCC4)CC1)[C@@H](C3)C2 (relative stereo) [Example 282]
25 | 84% | 81% | N#Cc1cnc(NCc2ccccc2Cl)nc1NC[C@]12CC3C[C@H](C1)[C@@H](NC1CCC(O)CC1)[C@@H](C3)C2 (stereo partly shown) [Example 95]
26 | 79% | 91% | CSc1ccccc1CNc1ncc(C#N)c(NC[C@]23CC4C[C@H](C2)C(NC[C@H]2CC[C@H](O)CC2)[C@@H](C4)C3)n1 (relative stereo) [Example 228]
27 | 92% | 90% | N#Cc1cnc(NCc2ccccc2Cl)nc1NC[C@]12CC3C[C@H](C1)[C@@H](NCC1CCN(CCO)CC1)[C@@H](C3)C2 (relative stereo) [Example 216]
28 | 81% | 85% | C[C@]1(O)CC[C@H](CN[C@@H]2[C@@H]3CC4C[C@H]2C[C@@](CNc2nc(NCc5ccccc5Cl)ncc2C#N)(C4)C3)CC1 (relative stereo) [Example 370]
29 | 82% | 85% | N#Cc1cnc(NCc2ccccc2Cl)nc1NC[C@]12CC3C[C@H](C1)[C@@H](N[C@H]1CC[C@@H](NCCO)CC1)[C@@H](C3)C2 (relative stereo) [Example 220, rel-2-[(2-chlorobenzyl)amino]-4-({[(1R,3S,4R,5R)-4-({cis-4-[(2-hydroxyethyl)amino]cyclohexyl}amino)adamantan-1-yl]methyl}amino)pyrimidine-5-carbonitrile]
30 | 85% | 80% | COc1ncccc1CNc1ncc(C#N)c(NC[C@]23CC4C[C@H](C2)[C@@H](NC2CCC(O)CC2)[C@@H](C4)C3)n1 (relative stereo) [Example 252]
31 | 94% | 81% | COc1ccccc1CNc1ncc(C#N)c(NC[C@]23CC4C[C@H](C2)[C@@H](NCC[C@@H](O)CO)[C@@H](C4)C3)n1 (relative stereo) [Example 352]
32 | 94% | 81% | COc1ncccc1CNc1ncc(C#N)c(NC[C@]23CC4C[C@H](C2)[C@@H](NC[C@H]2CC[C@H](O)CC2)[C@@H](C4)C3)n1 (relative stereo) [Example 345]
